Measured values from US6117365A, “Phenolic acid amides of hydroxy-substituted benzylamines” (Haarmann & Reimer GmbH, priority 1997, dated 2000).

What was measured:
[1] = DPPH test for the removal of free radicals (activity as free-radical scavengers); details: for EC50 (effective relative concentration, c(test compound)/c(DPPH), at which 50% of the free radical DPPH had been removed): DPPH 100 μmol/l in methanol, absorption at 515 nm read until the decrease was less than 2% per hour
Description: The activity of example compounds 1 to 16 as free-radical scavengers was compared with that of a traditional free-radical scavenger. The DPPH (1,1-diphenyl-2-picrylhydrazyl) test for the removal of free radicals was used.
DPPH was dissolved in methanol to a concentration of 100 μmol/l. A series of dilutions of the example compounds, vitamin C, α-tocopherol, BHT, ferulic acid and of the naturally occurring N-(2-[4-hydroxyphenyl]ethyl)-4-hydroxy-3-methoxy-E-cinnamamide were prepared in methanol. Methanol was used as the control. 2500 μl of the DPPH solution were mixed with 500 μl of each test solution and the decrease in absorption at 515 nm was read until the decrease was less than 2% per hour. The activity of the test substances as free-radical scavengers was calculated using the following equation:
Activity as free-radical scavenger (%)=100-(absorption of the test
compounds)/(absorption of the control)×100.
The activity as free-radical scavengers (%) in a series of dilutions of test compounds was used to calculate, for each test compound, the effective relative concentration EC50 (based on the starting concentration of DPPH, EC=c (test compound)/c(DPPH)) of a test compound, at which 50% of the free radical DPPH had been removed.

[2] = accelerated autoxidation of lipids by air using a RANCIMAT apparatus (activity as antioxidants); details: for AOI (antioxidative index) = IP(with test solution)/IP(control sample): 0.05% of test substance, soy bean oil, 100° C., dry air stream 20 l/h
Description: The activity of example compounds 1 to 16 as antioxidants was compared with that of traditional antioxidants. The test system used was the accelerated autoxidation of lipids by air with or without antioxidant using a RANCIMAT apparatus (RANCIMAT is a registered trade mark of Metrohm AG, Herisau, Switzerland).
The example compounds, vitamin C, α-tocopherol, BHT, ferulic acid and the naturally occurring N-(2-[4-hydroxyphenyl]-ethyl)-4-hydroxy-3-methoxy-E-cinnamamide were dissolved in methanol or acetone, and 100 μl of each test solution were added to a 3 g pre-prepared oil sample (soy bean oil, purified over alumina type N). In a control sample, only solvent was added. A constant, dry air stream (20 l/h) was blown through the oil sample, which contained the test solution and was heated to 100° C., and the volatile oxidation products (predominantly short-chain fatty acids such as formic or acetic acid) were collected in a receiver containing water. The conductivity of this aqueous solution was continuously measured and recorded. The oxidation of (unsaturated) fats proceeds only very slowly for some time and then suddenly increases. The time to the increase is referred to as the induction period (IP).
The following equation was used to calculate the antioxidative index (AOI):
AOI=IP(with test solution) /IP(control sample)

[3] = comparison in words with reference substances

| Compound | EC50 (effective relative concentration, c(test compound)/c(DPPH), at which 50% of the free radical DPPH had been removed) [1] [mol/mol] | AOI (antioxidative index) = IP(with test solution)/IP(control sample) [2] | action as free-radical scavenger, in words [1, 3] | action as antioxidant, in words [2, 3] |
| --- | --- | --- | --- | --- |
| Cc1cc(C(C)(C)C)c(O)c(C(C)(C)C)c1 [BHT, 2,6-di-tert-butyl-4-methylphenol, reference compound] | 0.240 | 4.77 | – | – |
| COc1cc(/C=C/C(=O)NCc2ccc(O)c(O)c2)ccc1O [Example 1, N-(3,4-Dihydroxybenzyl)-4-hydroxy-3-methoxy-E-cinnamamide] | 0.1 | 11.41 | – | – |
| COc1cc(/C=C/C(=O)NCc2ccc(O)c(O)c2)cc(OC)c1O [Example 2, N-(3,4-Dihydroxybenzyl)-3,5-dimethoxy-4-hydroxy-E-cinnamamide] | 0.097 | 7.58 | – | – |
| COc1cc(/C=C/C(=O)NCc2ccc(O)c(O)c2O)ccc1O [Example 3, N-(2,3,4-Trihydroxybenzyl)-4-hydroxy-3-methoxy-E-cinnamamide] | 0.097 | 11.7 | – | – |
| COc1cc(/C=C/C(=O)NCc2ccc(O)c(O)c2O)cc(OC)c1O [Example 4, N-(2,3,4-Trihydroxybenzyl)-3,5-dimethoxy-4-hydroxy-E-cinnamamide] | 0.1 | 17.3 | – | – |
| COc1cc(/C=C/C(=O)NCc2cc(O)c(O)c(O)c2)ccc1O [Example 5, N-(3,4,5-Trihydroxybenzyl)-4-hydroxy-3-methoxy-E-cinnamamide] | 0.0097 | 21.4 | – | – |
| COc1cc(CC(=O)NCc2ccc(O)c(O)c2)ccc1O [Example 6, N-(3,4-Dihydroxybenzyl)-4-hydroxy-3-methoxyphenylacetamide] | 0.103 | 13.9 | – | – |
| COc1cc(CCC(=O)NCc2ccc(O)c(O)c2)ccc1O [Example 7, N-(3,4-Dihydroxybenzyl)-3-(4-hydroxy-3-methoxyphenyl)-propanamide] | 0.094 | 7.7 | – | – |
| COc1cc(CNC(=O)CCc2ccc(O)c(O)c2)ccc1O [Example 8, N-(4-Hydroxy-3-methoxybenzyl)-3-(3,4-dihydroxyphenyl)-proyanamide] | 0.119 | 13.2 | – | – |
| O=C(CCc1ccc(O)c(O)c1)NCc1ccc(O)c(O)c1 [Example 9, N-(3,4-Dihydroxybenzyl)-3-(3,4-dihydroxyphenyl)-propanamide] | 0.07 | 19.8 | – | – |
| O=C(CCc1ccc(O)c(O)c1)NCc1ccc(O)c(O)c1O [Example 10, N-(2,3,4-Trihydroxybenzyl)-3-(3,4-dihydroxyphenyl)-pronanamide] | 0.069 | 24.6 | – | – |
| O=C(/C=C/c1ccc(O)c(O)c1)NCc1ccc(O)c(O)c1 [Example 11, N-(3,4-Dihydroxybenzyl)-3,4-dihydroxy-E-cinnamamide] | 0.043 | 14.9 | – | – |
| COc1cc(CNC(=O)/C=C/c2ccc(O)c(O)c2)ccc1O [Example 12, N-(4-Hydroxy-3-methoxybenzyl)-3,4-dihydroxy-E-cinnamamide] | 0.089 | 14.3 | – | – |

Second part, led by results:

| EC50 (effective relative concentration, c(test compound)/c(DPPH), at which 50% of the free radical DPPH had been removed) [1] [mol/mol] | Compound | AOI (antioxidative index) = IP(with test solution)/IP(control sample) [2] | action as free-radical scavenger, in words [1, 3] | action as antioxidant, in words [2, 3] |
| --- | --- | --- | --- | --- |
| 0.1 | COc1cc(CNC(=O)/C=C/c2ccc(O)c(O)c2)cc(OC)c1O [Example 13, N-(3,5-Dimethoxy-4-hydroxybenzyl)-3,4-dihydroxy-E-cinnamamide] | 3.6 | – | – |
| 0.054 | O=C(/C=C/c1ccc(O)c(O)c1)NCc1ccc(O)c(O)c1O [Example 14, N-(2,3,4-Trihydroxybenzyl)-3,4-dihydroxy-E-cinnamamide] | 27.5 | – | – |
| 0.105 | COc1cc(CNC(=O)Cc2ccc(O)c(O)c2)ccc1O [Example 15, N-(4-Hydroxy-3-methoxybenzyl)-3,4-dihydroxyphenylacetamide] | 7.84 | – | – |
| 0.053 | O=C(Cc1ccc(O)c(O)c1)NCc1ccc(O)c(O)c1 [Example 16, N-(3,4-Dihydroxybenzyl)-3,4-dihydroxyphenylacetamide] | 8.84 | – | – |
| 0.350 | COc1cc(/C=C/C(=O)O)ccc1O [Ferulic acid, ferulic acid, reference compound] | 1.79 | – | – |
| 0.441 | COc1cc(/C=C/C(=O)NCCc2ccc(O)cc2)ccc1O [N-(2-[4-hydroxyphenyl]ethyl)-4-hydroxy-3-methoxy-E-cinnamamide, reference compound] | 1.41 | no better than α-tocopherol | no better than α-tocopherol |
| 0.270 | O=C1O[C@H]([C@@H](O)CO)C(O)=C1O [Vitamin C, L-ascorbic acid, reference compound] | 1.17 | – | – |
| 0.250 | Cc1c(C)c2c(c(C)c1O)CCC(C)(CCCC(C)CCCC(C)CCCC(C)C)O2 (stereo not drawn) [α-Tocopherol, α-tocopherol, reference compound] | 5.05 | – | – |
